Each structure is given as a SMILES string. The source made the active and inactive calls. The rule behind the calls is not given here.

The results in this text go back to ChEMBL document CHEMBL1126356, “Structure-activity relationships of the pyridazinone series of 5-lipoxygenase inhibitors” (Bioorg Med Chem Lett, 1992).

The first assay concerns the target T1, Polyunsaturated fatty acid 5-lipoxygenase (Homo sapiens) (UniProt P09917).
T1 sequence (whole entry): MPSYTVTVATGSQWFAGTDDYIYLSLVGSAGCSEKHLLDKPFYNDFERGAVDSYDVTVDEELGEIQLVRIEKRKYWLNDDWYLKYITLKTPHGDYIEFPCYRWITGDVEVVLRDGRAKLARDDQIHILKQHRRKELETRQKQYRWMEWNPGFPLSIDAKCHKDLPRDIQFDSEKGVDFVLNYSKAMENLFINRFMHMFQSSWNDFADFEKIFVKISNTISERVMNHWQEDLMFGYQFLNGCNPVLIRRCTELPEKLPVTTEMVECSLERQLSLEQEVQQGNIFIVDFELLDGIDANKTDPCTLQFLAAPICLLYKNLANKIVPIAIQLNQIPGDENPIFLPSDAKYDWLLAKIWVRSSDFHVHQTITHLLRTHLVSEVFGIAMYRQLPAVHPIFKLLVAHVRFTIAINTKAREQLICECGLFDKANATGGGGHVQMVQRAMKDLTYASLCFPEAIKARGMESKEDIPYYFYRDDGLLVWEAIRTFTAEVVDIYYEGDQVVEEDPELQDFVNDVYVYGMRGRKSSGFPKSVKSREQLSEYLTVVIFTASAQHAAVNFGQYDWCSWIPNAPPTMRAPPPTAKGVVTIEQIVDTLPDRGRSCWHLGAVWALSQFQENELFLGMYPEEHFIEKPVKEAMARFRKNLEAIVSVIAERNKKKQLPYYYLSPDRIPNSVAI
Briefly: Inhibitory Activity against 5-Lipoxygenase at concentration 32 uM was determined.
One may read the inhibition as the relative decrease from the control value, in per cent. Read a low inhibition as a response near the control. Turning to `O=C1CCCCCN(c2ccccc2)N1`, the inhibition stood at 8%.

In the next assay the target is T1, Polyunsaturated fatty acid 5-lipoxygenase (Homo sapiens). Briefly: Inhibitory Activity against 5-Lipoxygenase at 30 uM was determined; Weakly active.
The molecule `O=C1CCC(=O)N(c2ccccc2)N1` yielded an inhibition of 24%.

In a further assay the target is T2, Polyunsaturated fatty acid 5-lipoxygenase (Homo sapiens, UniProt P09917).
T2 sequence (P09917 whole entry): T1 sequence (whole entry)
The assay is described as follows: Inhibitory Activity against 5-Lipoxygenase was determined; IA=Inactive at concentrations less than 32 uM.
One may read the IC50 as the concentration needed to halve the response being measured. A lower IC50 goes with greater potency. Regarding `O=C1CCCCN(c2ccccc2)N1`, the IC50 entry is “Not Active”.

Another assay has as its target T2, Polyunsaturated fatty acid 5-lipoxygenase. Briefly: Inhibitory Activity against 5-Lipoxygenase was determined; NA=No significant inhibitory activity up to 300 uM.
Regarding `O=C1CCCN(c2cccc(C(=O)O)c2)N1`, the IC50 result is recorded as “Not Active”.

The target is the same in the next assay. Briefly: Inhibitory Activity against 5-Lipoxygenase was determined; IA=Inactive.
In the case of `CCOC(=O)CCCCCN(N)c1ccccc1`, the 50% inhibitory concentration (IC50) result is listed as “Not Active”.

For `CCOC(=O)CCCCN(N)c1ccccc1`, the half-inhibitory concentration (IC50) result was “Not Active”.

Another assay addresses T1, Polyunsaturated fatty acid 5-lipoxygenase (Homo sapiens). The assay is described as follows: In vitro inhibition of 5-Lipoxygenase; Inactive.
As for `C1=NN(c2ccccc2)CCC1`, the outcome was inactive.

For `O=C1CCCN(C(=O)c2ccccc2)N1`, the result was inactive.

With `CCC(=O)N1C(=O)CCCN1c1ccccc1`, the outcome was inactive.

Turning to `O=C1CCCC(c2ccccc2)=N1`, the result was inactive.

In the case of `O=C1CCCN(c2ccccc2)C1`, the outcome was inactive.

For `CC1=NN(c2ccccc2)C(=O)CC1`, the outcome was inactive.

For `c1ccc(N2CCCCN2)cc1`, the result was inactive.

`CCCCCN1CCCC(=O)N1`: the outcome was inactive.

`O=C1CCC(c2ccccc2)=NN1`: the result was inactive.

In the case of `CC1CCC(=O)N(c2ccccc2)N1` (stereo unspecified), the result was inactive.

For `CN1C(=O)CCCN1c1ccccc1`, the result was inactive.

For `O=C1CCCN(C2CCCCC2)N1`, the result was inactive.

For the molecule `O=C1CCCNN1`, the result was inactive.

For `O=C1CCC(c2ccccc2)NN1` (stereo unspecified), the outcome was inactive.

As to `O=C1CCCN(c2ccccc2)N1C(=O)c1ccccc1`, the outcome was inactive.

Consider `O=C1CCCN(Cc2ccccc2)N1`, for which the outcome was inactive.

In the case of `O=C1CCCN(c2ccccc2)N1c1ccccc1`, the outcome was inactive.

Turning to `O=C1CCCC(c2ccccc2)N1` (stereo unspecified), the outcome was inactive.

The next assay concerns the target T2, Polyunsaturated fatty acid 5-lipoxygenase. Briefly: Inhibitory activity against 5-lipoxygenase.
The molecule `O=C1CCN(c2ccc(Cl)cc2)N1` came in with a half-inhibitory concentration (IC50) of 1.1 µM.

Turning to `O=C1CCCN(c2cccc(Cl)c2)N1`, inhibition was half-maximal at 2.5 µM (IC50).

In turn, `COc1ccc(N2CCCC(=O)N2)cc1` registered an IC50 of 156 µM.

As to `CCc1ccccc1N1CCCC(=O)N1`, the IC50 is 39 µM.

Turning to `CC(C)(C)C(=O)c1cccc(N2CCCC(=O)N2)c1`, the half-inhibitory concentration (IC50) was 15 µM.

In the case of `O=C1CCCN(c2cccc(F)c2)N1`, the IC50 amounted to 5.5 µM.

As to `O=C1CCCN(c2ccc(Cl)cc2)N1`, half-maximal inhibition (IC50) was put at 79 µM.

The molecule `O=C1CCN(c2ccccc2Cl)N1` yielded an IC50 of 3.7 µM.

In turn, `O=C1CCCN(c2ccccc2Cl)N1` registered an IC50 of 99 µM.

The molecule `O=C1CCCN(c2cccc(C(F)(F)F)c2)N1` returned an IC50 of 5.2 µM.

As for `O=C1CCCN(c2ccccc2)N1`, it took 3.8 µM to reach half-maximal inhibition (IC50).

As for `O=C1CCCN(c2cccc(CO)c2)N1`, the IC50 is 53 µM.

Turning to `CC(=O)NNc1ccccc1`, the IC50 is 65 µM.

`CCCCCCCCCCCCN1CCCC(=O)N1` returned an IC50 of 6 µM.

As for `Cc1cccc(N2CCC(=O)N2)c1`, the midpoint of inhibition, the IC50, lay at 1.3 µM.

Molecule `Cc1cccc(N2CCCC(=O)N2)c1` returned an IC50 of 3.4 µM.

The molecule `COc1ccccc1N1CCCC(=O)N1` came in with an IC50 of 204 µM.

`COc1cccc(N2CCCC(=O)N2)c1`: the concentration for half-maximal inhibition (IC50) is 6.7 µM.

Turning to `CCCC(=O)NNc1ccccc1`, the half-maximal inhibitory concentration (IC50) was 52 µM.

For the molecule `Cc1ccccc1N1CCCC(=O)N1`, the 50% inhibitory concentration (IC50) is 57 µM.

`Cc1ccc(N2CCCC(=O)N2)cc1` had a half-inhibitory concentration (IC50) of 277 µM.

Take `N#Cc1cccc(N2CCCC(=O)N2)c1`: the IC50 was 9.3 µM.

For `CCOC(=O)c1cccc(N2CCCC(=O)N2)c1`, the IC50 stood at 5.6 µM.

The molecule `Cc1ccc(N2CCC(=O)N2)cc1` gave an IC50 of 3.5 µM.

Molecule `O=C1CCN(c2cccc(Cl)c2)N1` showed a 50% inhibitory concentration (IC50) of 0.73 µM.

`CCc1ccc(N2CCCC(=O)N2)cc1` gave an IC50 of 125 µM.

`CCCCCCCCN1CCCC(=O)N1` registered an IC50 of 23 µM.

`Cc1ccccc1N1CCC(=O)N1` returned a concentration for half-maximal inhibition (IC50) of 8.2 µM.

In turn, `CCc1cccc(N2CCCC(=O)N2)c1` yielded an IC50 of 3 µM.

`CC(=O)c1cccc(N2CCCC(=O)N2)c1`: the IC50 amounted to 19 µM.

`O=C1CCCN(c2cccc(Br)c2)N1` came in with an IC50 of 1.8 µM.

Another assay has as its system Rattus norvegicus. The assay is described as follows: Compound was tested for in vivo potency in the rat anaphylaxis assay. It is filed as functional.
What is called ED50 is the dose at which the effect has come halfway, by size or by number of responders. Consider `N#Cc1cccc(N2CCCC(=O)N2)c1`, for which the 50% effect level (ED50) was put at a dose of 23 mg/kg.
